The target in one test is T1, Aurora A (Homo sapiens, UniProt O14965).
T1 construct: C-terminally Histidine4 (His4)-tagged Aurora A full-length protein
T1 sequence (O14965 1-403): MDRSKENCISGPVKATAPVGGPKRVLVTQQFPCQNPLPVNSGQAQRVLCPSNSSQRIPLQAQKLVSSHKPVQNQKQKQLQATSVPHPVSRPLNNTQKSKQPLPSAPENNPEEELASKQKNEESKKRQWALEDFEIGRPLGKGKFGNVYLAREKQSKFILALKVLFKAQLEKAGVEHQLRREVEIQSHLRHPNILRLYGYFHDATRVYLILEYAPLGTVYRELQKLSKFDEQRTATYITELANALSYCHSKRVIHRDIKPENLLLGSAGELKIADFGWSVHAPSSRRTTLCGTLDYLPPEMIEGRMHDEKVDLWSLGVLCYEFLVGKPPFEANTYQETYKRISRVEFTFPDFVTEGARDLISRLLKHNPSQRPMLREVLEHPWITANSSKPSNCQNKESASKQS
Kind of test: IC50 determination for inhibitors of Aurora A (96 MTP-ELISA). Format: biochemical. The conditions noted are these: His4-tagged full-length Aurora A 250 ng/ml, PKB-GSK2 200 nM, ATP 4 μM, 90 min at room temperature; read-out: IC50 Aurora A kinase inhibition. An excerpt: IC50 Determination for Inhibitors of Aurora A
Aurora A is a serine threonine kinase involved in spindle assembly and chromosome segregation.
The assay is a typically ELISA-type assay where biotinylated substrate (PKB-GSK2) is phosphorylated. Phosphorylation is detected by peroxidase (POD) labelled polyclonal antibody (PAK<M-Ig>S-IgG-POD) and phosphopeptide monoclonal antibody (Mab) (MAK<P-GSK>M-27E5-IgG). The assay is validated for IC50-determination.
Aurora A-His-4 C-terminally Histidine4 (His4)-tagged Aurora A full-length protein, stock solution 0.7 mg/ml, final conc.: 250 ng/ml
PKB-GSK2 biotinylated peptide derived from human GSK3-alpha sequence (Biotin-SGRARTSSFAEPGG-CONH2), stock solution 600 μM, final conc.: 200 nM
ATP Adenosine-5′-triphosphate 1 mM, diluted in kinase buffer, (Roche Diagnostics GmbH, Cat. No.: 127531-001,), final conc.: 4 μM
Kinase buffer 50 mM TRIS, 10 mM MgCl2, 1 mM DTT, 0.1% Tween 20, pH 7.8
This assay is performed in 96-well format for IC50 determination with 5 samples (each with 8 concentrations by twofold testing), 100 μl incubation volume and the following plate layout:
Step/Action 1. Sample preparation: add 24 μl per well samples (descending sequence) diluted in kinase buffer to assay plate (final conc. for DMSO 1%). 2. Add directly 16 μl Aurora-A-his-4 diluted in kinase buffer to assay plate. 3. Add directly 40 μl per well PKB-GSK2/ATP mixture to assay plate, (final conc.: Aurora A=250 ng/ml, GSK2=200 nM, ATP=4 μM). Negative control: without ATP. 4. Incubate assay plate for exactly 90 min at room temperature. 5. Stop reaction by adding 20 μl EDTA in all wells. 6. Wash assay plate 3× with 200 μl washing buffer per well. 7. Add 100 μl MAK<P-GSK>M27E5-IgG (1:10000) and PAK<M-Ig>S-IgG-POD (1:6000) dissolved in 3% BSA/PBS-T to assay plate per well. 8. Incubate assay plate for 60 min at room temperature. 9. Wash assay plate 3× with 200 μl washing buffer per well 10. Add 100 μl ABTS solution to assay plate per well, incubate for approx. 4 min at RT on MTP shaker. 11. Measure absorption at 405/492 nm. 12. Calculate % inhibition as: (1−(Esample−ENC)/(EPC−ENC))×100 13. Calculate IC50 using a non-linear curve fit (XLfit software (ID Business Solution Ltd., Guilford, Surrey, UK))
On the technique in general: An ELISA detects its analyte on a solid surface through an enzyme-linked reagent.

Another test deals with HCT 116 cells. Kind of test: CellTiter-Glo assay in HCT 116 cells (antiproliferative activity). Type of test: cell-based. The conditions noted are these: HCT 116 human colon carcinoma cells, 5 days (120 h) incubation, CellTiter-Glo luminescence. An excerpt:
Antiproliferative Activity
CellTiter-Glo™ Assay in HCT 116 Cells
The CellTiter-Glo™ Luminescent Cell Viability Assay (Promega) is a homogeneous method of determining the number of viable cells in culture based on quantitation of the ATP present, which signals the presence of metabolically active cells.
HCT 116 cells (human colon carcinoma, ATCC-No. CCI-247) were cultivated in RPMI 1640 medium with GlutaMAX™ I (Invitrogen, Cat-No. 61870-010), 2.5% Fetal Calf Serum (FCS, Sigma Cat-No. F4135 (FBS)); 100 Units/ml penicillin/100 μg/ml streptomycin (=Pen/Strep from Invitrogen Cat. No. 15140). For the assay the cells were seeded in 384 well plates, 1000 cells per well, in the same medium. The next day the test compounds were added in various concentrations ranging from 30 μM to 0.0015 μM (10 concentrations, 1:3 diluted). After 5 days the CellTiter-Glo™ assay was done according to the instructions of the manufacturer (CellTiter-Glo™ Luminescent Cell Viability Assay, from Promega). In brief: the cell-plate was equilibrated to room temperature for approximately 30 minutes and than the CellTiter-Glo™ reagent was added. The contents were carefully mixed for 15 minutes to induce cell lysis. After 45 minutes the luminescent signal was measured in Victor 2, (scanning multiwell spectrophotometer, Wallac).
Medium: RPMI 1640 with GlutaMAX™ I (Invitrogen, Cat-Nr. 61870), 5% FCS (Sigma Cat.-No. F4135), Pen/Strep (Invitrogen, Cat No. 15140).
HCT116 (ATCC-No. CCI-247): 1000 cells in 60 μl per well of 384 well plate (Greiner 781098, μClear-plate white)
After seeding incubate plates 24 h at 37° C., 5% CO2
2nd. Day: Induction (Treatment with Compounds, 10 Concentrations):
In order to achieve a final concentration of 30 μM as highest concentration 3.5 μl of 10 mM compound stock solution were added directly to 163 μl media. Then step e) of the dilution procedure described below, was followed.
In order to achieve the second highest to the lowest concentrations, a serial dilution with dilution steps of 1:3 was followed according to the procedure (a-e) as described here below: • for the second highest concentration add 10 μl of 10 mM stock solution of compound to 20 μl dimethylsulfoxide (DMSO) • dilute 8×1:3 (always 10 μl to 20 μl DMSO) in this DMSO dilution row (results in 9 wells with concentrations from 3333.3 μM to 0.51 μM) • dilute each concentration 1:47.6 (3.5 μl compound dilution to 163 μl media) • add 10 μl of every concentration to 60 μl media in the cell plate resulting in final concentration of DMSO: 0.3% in every well and resulting in 10 final concentration of compounds ranging from 30 μM to 0.0015 μM. • Each compound is tested in triplicate. • Incubate 120 h (5 days) at 37° C., 5% CO2 Analysis:
Add 30 μl CellTiter-Glo™ Reagent (prepared from CellTiter-Glo™ Buffer and CellTiter-Glo™ Substrate (lyophilized) purchased from Promega) per well, • shake 15 minutes at room temperature • incubate further 45 minutes at room temperature without shaking Measurement:
Victor 2 scanning multiwell spectrophotometer (Wallac), Luminescence mode (0.5 sec/read, 477 nm)
Determine IC50 using a non-linear curve fit (XLfit software (ID Business Solution Ltd., Guilford, Surrey, UK))
In general terms: In ATP-based viability assays light output follows the ATP content of the culture.

What is called IC50 is the point on the concentration scale where inhibition reaches its midpoint.

As to `CCCc1cc(-c2nc3cc4c(cc3[nH]2)N(CCC)C(=O)C4(C)C)[nH]n1` [Example 37, 7,7-Dimethyl-5-propyl-2-(5-propyl-2H-pyrazol-3-yl)-5,7-dihydro-3H-imidazo[4,5-f]indol-6-one], the IC50 fell in the range of 10 to 500 nM at Aurora A and 100 to 10000 nM in the test on HCT 116 cells.
In the same order, the values of `CC1(C)CC(=O)Nc2cc3nc(-c4cc[nH]n4)[nH]c3cc21` [Example 24, 8,8-Dimethyl-2-(1H-pyrazol-3-yl)-1,5,7,8-tetrahydro-imidazo[4,5-g]quinolin-6-one] are 500 to 1500 nM and 100 to 10000 nM.
In the same order, the values of `Cc1cc(-c2nc3cc4c(cc3[nH]2)NC(=O)C4(C)C)n[nH]1` [Example 5, 7,7-Dimethyl-2-(5-methyl-2H-pyrazol-3-yl)-5,7-dihydro-3H-imidazo[4,5-f]indol-6-one] are 10 to 500 nM and 100 to 10000 nM.
Turning to `Cc1[nH]nc(-c2nc3cc4c(cc3[nH]2)C(C)(C)C(=O)N4)c1C` [Example 17, 2-(4,5-Dimethyl-1H-pyrazol-3-yl)-7,7-dimethyl-5,7-dihydro-1H-imidazo[4,5-f]indol-6-one], the IC50 at Aurora A fell in the range of 10 to 500 nM; in the test with HCT 116 cells, 100 to 10000 nM.
`CCCN1C(=O)C(C)(C)c2cc3[nH]c(-c4cc(C)n[nH]4)nc3cc21` [Example 36, 7,7-Dimethyl-2-(5-methyl-2H-pyrazol-3-yl)-5-propyl-5,7-dihydro-1H-imidazo[4,5-f]indol-6-one]: the concentration for half-maximal inhibition (IC50) at Aurora A lay in the range of 10 to 500 nM; with HCT 116 cells it was 100 to 10000 nM.

Values taken from patent publication US7285569B2, “Tricycles, their manufacture and use as pharmaceutical agents” (Hoff Hoffmann-La Roche Inc., priority 2004, dated 2007).
